In ChEMBL document CHEMBL3352755, “Synthesis and influenza virus inhibitory activities of carbosilane dendrimers peripherally functionalized with hemagglutinin-binding Peptide” (J Med Chem, 2014):

Experiments:
[1] = system: Influenza A virus; test: Antiviral activity against Influenza A virus (A/Puerto Rico/8/34(H1N1)) infected in MDCK cells after 2 days using crystal violet staining by plaque assay; assay type: functional, organism-based; conditions: A/Puerto Rico/8/1934(H1N1), 48 h
[2] = Antiviral activity against Influenza A virus (A/Aichi/2/1968(H3N2)) infected in MDCK cells after 2 days using crystal violet staining by plaque assay; assay type: functional, cell-based; conditions: 48 h
[3] = system: MDCK; test: Cytotoxicity against MDCK cells at 10 times IC50 in antiviral assay after 2 days by WST-1 cell counting assay; assay type: cell-based, Canis lupus familiaris; conditions: dog, 48 h
[4] = Hemolytic activity in chicken erythrocytes at 30 to 40 uM after 24 hrs by spectrophotometry; assay type: ADME, cell-based, Gallus gallus; conditions: erythrocyte
[5] = Critical micelle concentration of the compound in PBS using N-phenyl-1-naphthylamine by fluorescence assay; assay type: ADME; conditions: buffer
[6] = Hemolytic activity in chicken erythrocytes at 48 uM after 24 hrs by spectrophotometry; assay type: ADME, cell-based, Gallus gallus, Erythrocyte; conditions: read-out: Activity
[7] = Hemolytic activity in chicken erythrocytes at 240 uM after 24 hrs by spectrophotometry; assay type: ADME, cell-based, Gallus gallus, Erythrocyte; conditions: read-out: Activity
[8] = system: MDCK; test: Cytotoxicity against MDCK cells at 200 uM after 2 days by WST-1 cell counting assay; assay type: cell-based, Canis lupus familiaris; conditions: dog, 48 h

CC(C)C[C@H](NC(=O)[C@H](CCCNC(=N)N)NC(=O)[C@H](C)N)C(=O)N1CCC[C@H]1C(=O)N[C@@H](CCCNC(=N)N)C(=O)NCCC[Si](CCCNC(=O)[C@H](CCCNC(=N)N)NC(=O)[C@@H]1CCCN1C(=O)[C@H](CC(C)C)NC(=O)[C@H](CCCNC(=N)N)NC(=O)[C@H](C)N)(CCCNC(=O)[C@H](CCCNC(=N)N)NC(=O)[C@@H]1CCCN1C(=O)[C@H](CC(C)C)NC(=O)[C@H](CCCNC(=N)N)NC(=O)[C@H](C)N)c1ccccc1
IC50 [1]: 12.6 µM | IC50 [2]: 5.7 µM | Activity [3]: Non-toxic | Activity [4]: Non-toxic | CMC [5]: 3.9 µM

CC(C)C[C@H](NC(=O)[C@H](CCCNC(=N)N)NC(=O)[C@H](C)N)C(=O)N1CCC[C@H]1C(=O)N[C@@H](CCCNC(=N)N)C(=O)NCCC[Si](CCCNC(=O)[C@H](CCCNC(=N)N)NC(=O)[C@@H]1CCCN1C(=O)[C@H](CC(C)C)NC(=O)[C@H](CCCNC(=N)N)NC(=O)[C@H](C)N)(CCCNC(=O)[C@H](CCCNC(=N)N)NC(=O)[C@@H]1CCCN1C(=O)[C@H](CC(C)C)NC(=O)[C@H](CCCNC(=N)N)NC(=O)[C@H](C)N)CCC[Si](C)(C)CCC[Si](CCCNC(=O)[C@H](CCCNC(=N)N)NC(=O)[C@@H]1CCCN1C(=O)[C@H](CC(C)C)NC(=O)[C@H](CCCNC(=N)N)NC(=O)[C@H](C)N)(CCCNC(=O)[C@H](CCCNC(=N)N)NC(=O)[C@@H]1CCCN1C(=O)[C@H](CC(C)C)NC(=O)[C@H](CCCNC(=N)N)NC(=O)[C@H](C)N)CCCNC(=O)[C@H](CCCNC(=N)N)NC(=O)[C@@H]1CCCN1C(=O)[C@H](CC(C)C)NC(=O)[C@H](CCCNC(=N)N)NC(=O)[C@H](C)N
IC50 [1]: 0.72 µM | IC50 [2]: 0.6 µM | Activity [3]: Non-toxic | hemolysis at 24 h, 48 µM [6]: 46% | hemolysis at 24 h, 240 µM [7]: 85% | CMC [5]: 4 µM

CC(C)C[C@H](NC(=O)[C@H](CCCNC(=N)N)NC(=O)[C@H](C)N)C(=O)N1CCC[C@H]1C(=O)N[C@@H](CCCNC(=N)N)C(=O)NCCC[Si](CCCNC(=O)[C@H](CCCNC(=N)N)NC(=O)[C@@H]1CCCN1C(=O)[C@H](CC(C)C)NC(=O)[C@H](CCCNC(=N)N)NC(=O)[C@H](C)N)(CCCNC(=O)[C@H](CCCNC(=N)N)NC(=O)[C@@H]1CCCN1C(=O)[C@H](CC(C)C)NC(=O)[C@H](CCCNC(=N)N)NC(=O)[C@H](C)N)CCCNC(=O)[C@H](CCCNC(=N)N)NC(=O)[C@@H]1CCCN1C(=O)[C@H](CC(C)C)NC(=O)[C@H](CCCNC(=N)N)NC(=O)[C@H](C)N
IC50 [1]: > 400 µM | IC50 [2]: > 400 µM | Activity [8]: Non-toxic | Activity [4]: Non-toxic
